Read-outs that look alike come from different tables or passages of the source.
Columns and labels:
[1] = system: edema (carrageenin, hind paw); assay: Anti-inflammatory activity: carrageenin hind paw edema in rats, oral administration; type: in vivo, male Donryu rats; details: Rattus norvegicus, po; for inhibition in vivo at 1 mg/kg / inhibition in vivo at 5 mg/kg / inhibition in vivo at 10 mg/kg: read-out: Percent edema inhibition
Procedure: (§1) The anti-inflammatory activity, analgesic activity and ulcerogenic activity of the novel dibenzo[a,d]cycloheptene derivatives of this invention were tested by the following methods.
Each of test compounds was orally administered to groups of male Donryu rats weighing 130 to 150 g (8 to 10 rats per group), and one hour later, 0.1 ml of a 1% carrageenin solution was injected subcutaneously into the hind paw of each rat. After injection of carrageenin, the volume of the paw was measured at predetermined periods, and the percent inhibition against a control group was calculated.

[2] = system: writhing syndromes (acetic acid); assay: Analgesic activity: acetic acid writhing in mice; type: in vivo, male ICR mice
Procedure: as §1
Using male ICR mice weighing 25 to 30 g (10 mice per group), there was measured the number of writhing syndromes induced when a 1% solution of acetic acid was intraperitoneally injected at a dose of 10 ml/kg. The percent inhibition against a control group was calculated.

[3] = in vivo; details: rat, in vivo, po
Procedure: as §1
(§2) Sixteen hours later, the rats were sacrificed under ether anesthesia.
(§3) *Calculated by the Adami's method.
(§4) **Calculated by the LitchfieldWilcoxon's method. The parenthesized values
(§5) show 95% confidence limits.

[4] = system: gastric wall; assay: in vivo; details: for Number of animals with ulcer/number of animals used: 16 hours; for Ulcer index (Mean ± SE): Adami's method
Procedure: as §1, §2, §3, §4, §5

COc1ccc2c(c1)c(CC(=O)O)c(C)n2C(=O)c1ccc(Cl)cc1 [Indomethacin, reference compound]
inhibition in vivo at 1 mg/kg ([1]; 1 h): 0% | inhibition in vivo at 5 mg/kg ([1]; 1 h): 3.9% | inhibition in vivo at 10 mg/kg ([1]; 1 h): 37.2% | inhibition in vivo at 1 mg/kg ([1]; 2 h): 20.3% | inhibition in vivo at 5 mg/kg ([1]; 2 h): 31.1% | inhibition in vivo at 10 mg/kg ([1]; 2 h): 45.3% | ED40 ([1]; 3 h, read-out: ED40 value): 9.8 mg/kg | inhibition in vivo at 1 mg/kg ([1]; 3 h): 6.3% | inhibition in vivo at 5 mg/kg ([1]; 3 h): 25.9% | inhibition in vivo at 10 mg/kg ([1]; 3 h): 41.8% | inhibition in vivo at 1 mg/kg ([1]; 4 h): 10.2% | inhibition in vivo at 5 mg/kg ([1]; 4 h): 31.7% | inhibition in vivo at 10 mg/kg ([1]; 4 h): 40.5% | Inhibition (writhing) ([2]; 1.25 mg/kg): 27.7% | Number of writhing syndromes (Mean ± SE) ([2]; 1.25 mg/kg): 14.6 ± 2.35 | Inhibition (writhing) ([2]; 2.5 mg/kg): 40.6% | Number of writhing syndromes (Mean ± SE) ([2]; 2.5 mg/kg): 12.0 ± 0.92 | Inhibition (writhing) ([2]; 5.0 mg/kg): 48.0% | Number of writhing syndromes (Mean ± SE) ([2]; 5.0 mg/kg): 10.5 ± 1.40 | Inhibition (writhing) ([2]; 10.0 mg/kg): 62.4% | Number of writhing syndromes (Mean ± SE) ([2]; 10.0 mg/kg): 7.6 ± 1.15 | Inhibition (writhing) ([2]; 20.0 mg/kg): 70.3% | Number of writhing syndromes (Mean ± SE) ([2]; 20.0 mg/kg): 6.0 ± 0.94 | ED50 ([2]; Mus musculus, po, read-out: ED50 value): 5 mg/kg | TD50 at 16 h [3]: 11.7 mg/kg | selectivity ratio [3]: 1.2 | Number of animals with ulcer/number of animals used ([4]; 3.13 mg/kg oral): 0/8 | Ulcer index (Mean ± SE) ([4]; 3.13 mg/kg oral): 0 | Number of animals with ulcer/number of animals used ([4]; 6.25 mg/kg oral): 2/8 | Ulcer index (Mean ± SE) ([4]; 6.25 mg/kg oral): 0.37 ± 0.26 | Number of animals with ulcer/number of animals used ([4]; 12.5 mg/kg oral): 4/8 | Ulcer index (Mean ± SE) ([4]; 12.5 mg/kg oral): 1.38 ± 0.53 | Number of animals with ulcer/number of animals used ([4]; 25.0 mg/kg oral): 7/8 | Ulcer index (Mean ± SE) ([4]; 25.0 mg/kg oral): 1.88 ± 0.35 | Number of animals with ulcer/number of animals used ([4]; 50.0 mg/kg oral): 8/8 | Ulcer index (Mean ± SE) ([4]; 50.0 mg/kg oral): 3.12 ± 0.12
